Reference: publication PMC12064818, “A general assay platform to study protein pharmacology using ligand-dependent structural dynamics” (Nature Communications, 2025)

What follows are compounds tested against T1, FLuc-C-HiBiT (Photinus pyralis, UniProt P08659) (assay: biochemical). Settings: enzyme activity, 10 uM ATP; read-out: IC50 or SDR50 (mM) / FLuc E.
T1 construct: firefly luciferase with C-terminal HiBiT tag, E. coli expressed
T1 sequence (P08659 whole entry, looked up): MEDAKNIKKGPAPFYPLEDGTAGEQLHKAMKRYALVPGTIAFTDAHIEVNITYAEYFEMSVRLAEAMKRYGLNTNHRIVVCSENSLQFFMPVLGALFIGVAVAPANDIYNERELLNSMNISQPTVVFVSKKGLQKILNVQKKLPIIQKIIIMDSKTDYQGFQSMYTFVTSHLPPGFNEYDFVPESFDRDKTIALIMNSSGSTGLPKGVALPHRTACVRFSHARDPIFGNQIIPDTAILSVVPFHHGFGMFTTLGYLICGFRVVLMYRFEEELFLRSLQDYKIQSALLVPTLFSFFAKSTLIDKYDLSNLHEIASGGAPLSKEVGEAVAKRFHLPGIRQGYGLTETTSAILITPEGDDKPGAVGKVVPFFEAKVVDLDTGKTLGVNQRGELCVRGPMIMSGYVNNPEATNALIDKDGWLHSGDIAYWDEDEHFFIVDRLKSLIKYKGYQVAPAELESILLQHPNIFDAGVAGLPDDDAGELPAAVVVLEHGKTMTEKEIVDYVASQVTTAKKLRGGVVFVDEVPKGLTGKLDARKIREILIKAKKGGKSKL

Row | Compound | IC50 [mM]
1 | Cn1cc(/C=C2\C(=O)Nc3cccnc32)c2ccccc21 [NCGC00161398-03] | 0.00989
2 | COc1ccc(NC(=O)Nc2cccc(-c3ccc(N4CCOCC4)nn3)c2)cc1Cl [NCGC00427610-01] | 0.00124
3 | CN1CCN(c2ccc(-c3cc4c(ccn4C)c(C(=O)NCC4CCC(=O)N4)n3)cc2)CC1 (centres unmarked) [NCGC00411731-01] | 0.0157
4 | Nc1ccc(-c2nc3ccccc3s2)cc1 [NCGC00165328-03] | 0.00176
5 | Oc1ccc(Cl)cc1CN1CCOc2c(O)cc(-c3nc4ccccc4s3)cc2C1 [NCGC00240488-01] | > 0.03
6 | O=C(NCc1ccc2c(c1)OCO2)C1CCN(c2cc(C(F)(F)F)ncn2)CC1 [NCGC00455586-01] | 0.0111
7 | COc1ccc(OC)c(-c2nc3ccc(OC)cc3s2)c1 [NCGC00167604-01] | 0.00881
8 | O=C(Nc1ccccc1)c1nc2c(o1)CCN(Cc1cccnc1)CC2 [NCGC00413263-01] | 0.0057
9 | O=C(O)c1ccc(-c2nnc3ccc(NC(=O)C4CCC4)cn23)cc1 [NCGC00432681-01] | 0.0111
10 | CCOC(=O)C1CCCN(c2ncnc3c2cnn3-c2ccc(C)c(Cl)c2)C1 (centres unmarked) [NCGC00139179-01] | > 0.03
11 | Cc1ccc(Cl)cc1-n1ncc2c(N3CCC(C(N)=O)CC3)ncnc21 [NCGC00138952-01] | > 0.03
12 | Cc1ccc(NC(=O)c2ccc(CN3C(=O)NC4(CCOCC4)C3=O)cc2)cc1C [NCGC00454605-01] | 0.0111
13 | Cc1ccc(OCC(=O)Nc2cccc(-c3nc4ccccc4s3)c2)cc1 [NCGC00119153-02] | 0.00989
14 | COc1cc(C(=O)NC2CCCN(c3cc(-c4ccc(F)cc4)n[nH]3)C2)cc(OC)c1OC (centres unmarked) [NCGC00437480-01] | 0.0111
15 | COc1ccc(-c2noc(-c3ccc(C)cc3Cl)n2)cc1OC [NCGC00102273-01] | 0.00124
16 | CN1CCNc2cc(Nc3ccc(F)cc3)ncc2C1 [NCGC00411261-01] | 0.0202
17 | OCc1ccnc(-c2ccc(-c3ccn[nH]3)cc2)c1 [NCGC00444969-01] | 0.00989
18 | Cc1cccc(C(=O)Nc2ccc(-c3nc4ccccc4s3)c(C)c2)c1 [NCGC00137838-01] | 0.00989

Row | Compound | IC50 [mM]
19 | Fc1ccc(Cc2cn3cc(-c4ccc(F)cc4)nc3s2)cc1 [NCGC00102134-01] | 0.000881
20 | COc1ccc(-c2nc3ccccc3s2)cc1NC(=O)c1cccc(F)c1 [NCGC00141116-01] | > 0.03
21 | CCc1cccc(NC(=O)Nc2cccc(-c3ccc(N4CCOCC4)nn3)c2)c1 [NCGC00427616-01] | 0.00624
22 | CSc1cccc(NC(=O)c2ccc3c(c2)N(C)C2CCCN2C3=O)c1 (centres unmarked) [NCGC00452155-01] | 0.0111
23 | COc1ccc(C(=O)NC2CCCN(c3cc(-c4ccc(F)cc4)n[nH]3)C2)cc1OC (centres unmarked) [NCGC00437488-01] | 0.0111
24 | CC(=O)c1cccc(Nc2nn(-c3ccc(OC(F)(F)F)cc3)nc2C(C)=O)c1 [NCGC00116630-01] | 0.00442
25 | CSc1ccc(-c2nc3c([nH]2)CC(C)(C)CNC3=O)cc1 [NCGC00448280-01] | 0.0124
26 | CCc1ccc(-n2nc(CO)c(C(=O)NC)n2)cc1 [NCGC00117187-01] | 0.0176
27 | O=C(NCCn1cccc1-c1nc(-c2ccc3c(c2)OCO3)no1)c1ccc(Cl)cc1 [NCGC00445582-01] | 0.00989
28 | COc1ccc(CN2CCOc3nc(-c4cc5ccccc5o4)ncc3C2=O)cc1 [NCGC00413542-01] | 0.00805
29 | Brc1ccccc1-n1ncc2c1ncn1nc(Cc3ccccc3)nc21 [NCGC00115124-01] | > 0.03
30 | O=C(Nc1ccc([C@H]2OCC(=O)N(Cc3ccncc3)[C@@H]2CO)cc1)c1ccc(C(F)(F)F)cc1 [NCGC00395114-01] | 0.0111
31 | Cc1ccc(/C=C/c2nc3ccccc3n2S(=O)(=O)c2cccc(Cl)c2)cc1 [NCGC00140605-01] | 0.000124
32 | Cc1ccccc1-c1noc(-c2ccc(NC(C)c3cnn(C)c3)nc2)n1 (centres unmarked) [NCGC00428942-01] | 0.000989
33 | Cc1cn2nc(C(=O)Nc3ccc(N(C)C)cc3)cc2c(N2CCCC2)n1 [NCGC00454051-01] | 0.0111
34 | CCNC(=O)N[C@@H]1C=C[C@@H](c2c(C)nn(-c3ccc(F)cc3)c2C)C1 [NCGC00392634-01] | 0.0202
35 | Cc1ccc(NC(=O)c2ncn(-c3ccccc3)n2)cc1Cl [NCGC00107303-01] | 0.00495
36 | O=C(Nc1cccnc1)c1nc2c(o1)CCN(Cc1cccc(O)c1)CC2 [NCGC00413425-01] | 0.0202

Now from value to compound:

Row | IC50 [mM] | Compound
37 | 0.00989 | COc1ccc(C(=O)COC(=O)CCCC(=O)Nc2ccc(C(C)=O)cc2)cc1 [NCGC00100762-01]
38 | 0.00279 | O=C(Nc1cccc(-c2ccc(N3CCOCC3)nn2)c1)Nc1ccc2c(c1)CCC2 [NCGC00427612-01]
39 | 0.00989 | O=C(C1CCC1)N1c2ccccc2CC1c1noc(C2CCOCC2)n1 (centres unmarked) [NCGC00471502-01]
40 | 0.00881 | CCCn1ncc(-c2nc(-c3ccncc3)no2)c1C [NCGC00445972-01]
41 | 0.00989 | CN(C)c1ccc(-c2nc(C3CCOC3)no2)cc1 (centres unmarked) [NCGC00447436-01]
42 | 0.00351 | Cc1ccc2nc(-c3cccc(NC(=O)CSc4ccc(Cl)cc4)c3)oc2c1 [NCGC00102431-01]
43 | > 0.03 | CN(c1ccc(NC(=O)Nc2ccc(OC(F)(F)F)cc2)cc1)c1ccnc(Nc2cccc([S+](N)(=O)[O-])c2)n1 [NCGC00242042-02]
44 | 0.014 | O=C(Nc1cccc(-c2nc3ccccc3[nH]2)c1)c1ccccc1F [NCGC00099429-01]
45 | 0.0202 | COc1cccc(Nc2ncc(-c3ccc(OC)nc3)c3c2OCC3)c1 [NCGC00412784-01]
46 | 0.00989 | CC(C)c1ccc(C(=O)Nc2cccc3cccnc23)cc1 [NCGC00103193-01]
47 | 0.00495 | O=C(NC1CCCN(c2cc(-c3ccc(Cl)cc3)n[nH]2)C1)c1ccc2ncccc2c1 (centres unmarked) [NCGC00437446-01]
48 | 0.00313 | COc1cccc2cc(C(=O)Nc3ccc(CC(=O)O)cc3)c(=O)oc12 [NCGC00102789-01]
49 | 0.000157 | CCOc1cccc2cc(-c3nc4ccc(C(=O)O)cc4[nH]3)c(=O)oc12 [NCGC00138160-01]
50 | 0.00176 | COc1ccc(NC(=O)Nc2cccc(-c3ccc(N4CCOCC4)nn3)c2)cc1 [NCGC00427572-01]
51 | 0.0124 | O=C(Nc1ccccc1C(=O)O)c1ccccc1 [NCGC00245456-03]
52 | 0.014 | COc1ccccc1OCc1nc2ccccc2n1Cc1ccccc1 [NCGC00141136-01]
53 | 0.0007 | Fc1ccccc1Nc1nc(-c2ccccc2)no1 [NCGC00422293-01]
54 | > 0.03 | CC(C)c1nc2c(c(-c3ccc(O)cc3)n1)CN(Cc1ccccc1)CC2 [NCGC00480075-01]
55 | 0.00495 | CC(C)n1cc(-c2cc(C(=O)N3CCC(C)(C)C3)c3ccc(F)cc3n2)cn1 [NCGC00430819-01]
56 | 0.00157 | Fc1ccccc1Cc1cn2cc(-c3ccc(Cl)cc3)nc2s1 [NCGC00102106-01]
57 | > 0.03 | COc1ccc(CNC(=O)Cn2cccc2C(=O)c2ccccc2C)cc1 [NCGC00113808-01]
58 | 0.00495 | CCOc1ccc(-c2cn3nc(CC(C)C)sc3n2)cc1 [NCGC00117462-01]
59 | 0.00989 | COc1ccc(-c2cc3c(=O)n(CCNC(=O)c4ccco4)ccn3n2)cc1 [NCGC00456922-01]
60 | > 0.03 | Cc1ccc(Cn2cc(-c3ccncc3)cc2C(=O)O)cc1 [NCGC00432741-01]
61 | 0.0124 | Cc1cccc(OCCn2nnc3sc4c(c3c2=O)CCCC4)c1 [NCGC00117282-01]

Row | IC50 [mM] | Compound
62 | 0.0124 | Cc1ccc(Nc2c(-c3ccc(N(C)C)cc3)nc3[nH]cnn23)cc1 [NCGC00105887-01]
63 | 0.0202 | CC1(NC(=O)C2CC2)CN(Cc2nc(-c3ccccc3)cs2)C1 [NCGC00410376-01]
64 | 0.000313 | O=C(O)c1ccc(-c2noc(-c3ccc(C(F)(F)F)cc3)n2)cc1 [NCGC00168758-01]
65 | 0.00248 | Cc1cc(NC(=O)c2ccccc2F)ccc1-c1nc2ccccc2s1 [NCGC00137834-01]
66 | 0.00989 | N#Cc1c(-n2ncnc2-c2ccc(Br)cc2)sc2c1CCCCC2 [NCGC00099350-01]
67 | > 0.03 | Fc1ccc(-n2ncc3c(N4CCC(Cc5ccccc5)CC4)ncnc32)cc1 [NCGC00139053-01]
68 | 0.00495 | c1ccc(COc2cccc(-c3nc4ccccc4s3)c2)cc1 [NCGC00167622-01]
69 | 0.00556 | COc1ccc(-c2nc3ccc(N[S+](C)(=O)[O-])cc3o2)cc1 [NCGC00119094-01]
70 | 0.00442 | CC[S+](=O)([O-])c1cccc(C(=O)Nc2ccc(-c3nc4ccccc4s3)c(O)c2)c1 [NCGC00134166-03]
71 | 0.0161 | CC(=O)N1CCNc2cc(Nc3cccc(N(C)C)c3)ncc2C1 [NCGC00411238-01]
72 | 0.018 | Cc1cc(-c2cc3c(cn2)CN(Cc2c[nH]cn2)CCN3)ccn1 [NCGC00411148-01]
73 | 0.0111 | Nc1ccc(C(=O)N2CCCn3nc(C(=O)Nc4ccccc4)cc3C2)cn1 [NCGC00432306-01]
74 | 0.00881 | Cc1ccc(NC(=O)c2ccc3c(c2)N(C)C2CCCN2C3=O)cc1F (centres unmarked) [NCGC00452116-01]
75 | 0.0202 | CNC(=O)c1cccc(-c2cnc(NC(=O)c3cn(C)cn3)c3c2CCO3)c1 [NCGC00412729-01]
76 | 0.016 | CCOc1ncccc1C(=O)OCC(=O)Nc1ccc(-c2nc3ccc(C)cc3s2)cc1 [MLS000418033-02]
77 | 0.0143 | CN1CCN(c2ccc(-c3cc4c(ccn4C)c(C(=O)NCCC(N)=O)n3)cc2)CC1 [NCGC00411733-01]
78 | 0.0114 | COCCN1CCOc2nc(-c3cc(F)cc(OC)c3)ncc2C1=O [NCGC00413569-01]
79 | > 0.03 | OC1(CN2CCCN(c3nc4ccccc4s3)CC2)CNCCOC1 (centres unmarked) [NCGC00443145-01]
80 | 0.000989 | Fc1ccc(-c2cn3cc(Cc4ccccc4Cl)sc3n2)cc1 [NCGC00102130-01]
81 | 0.00989 | CCCc1noc(-c2nc(-c3ccccc3F)no2)n1 [NCGC00450039-01]
82 | 0.0143 | O=C([C@@H]1C[C@@H](O)[C@H](O)[C@@H]2NC(=S)N(c3ccc4c(c3)OCO4)[C@@H]21)N1CCOCC1 [NCGC00397934-01]
83 | 0.018 | COc1cccc(CN2CCNc3cc(-c4ccnc(C)c4)ncc3C2)c1 [NCGC00411029-01]
84 | 0.00556 | COc1ccc(-c2cn3nc(SCC(=O)Nc4cc(C)cc(C)c4)ccc3n2)cc1 [NCGC00134460-01]
85 | 0.0124 | Cc1ccc(-n2ncc3c(N4CCC(C(N)=O)CC4)ncnc32)cc1 [NCGC00139056-01]
86 | 0.0111 | O=C(Nc1ccc2c(c1)OCCO2)N1CCCC(c2nc(C3CCOCC3)no2)C1 (centres unmarked) [NCGC00475594-01]
